According to patent US20050090524A1, “Novel adamantane derivatives” (priority 2002, published 2005):
Counter-ions that a name gives are not always drawn.

Target: T1, P2X7 receptor (Homo sapiens, UniProt Q99572)
T1 construct: 200 μl of a suspension of THP-1 cells; endogenous in cells; host or cells: THP-1 cells
T1 sequence (Q99572 1-595): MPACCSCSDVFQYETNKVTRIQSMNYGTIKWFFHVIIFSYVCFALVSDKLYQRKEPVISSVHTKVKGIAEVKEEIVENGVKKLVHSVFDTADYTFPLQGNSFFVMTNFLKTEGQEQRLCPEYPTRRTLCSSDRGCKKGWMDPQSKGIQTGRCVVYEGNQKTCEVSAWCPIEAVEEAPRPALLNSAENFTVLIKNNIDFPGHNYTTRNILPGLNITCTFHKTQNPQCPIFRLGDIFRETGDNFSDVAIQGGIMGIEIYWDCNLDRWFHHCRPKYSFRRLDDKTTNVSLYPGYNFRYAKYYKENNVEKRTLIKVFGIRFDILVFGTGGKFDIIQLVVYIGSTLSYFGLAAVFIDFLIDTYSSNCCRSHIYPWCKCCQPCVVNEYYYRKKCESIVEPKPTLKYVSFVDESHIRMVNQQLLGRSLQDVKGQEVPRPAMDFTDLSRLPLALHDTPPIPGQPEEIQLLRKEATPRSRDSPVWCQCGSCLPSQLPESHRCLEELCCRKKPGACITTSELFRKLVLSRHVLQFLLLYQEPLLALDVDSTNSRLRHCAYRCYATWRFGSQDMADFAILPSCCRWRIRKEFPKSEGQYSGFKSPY
Assay: P2X7 receptor antagonist test: bbATP-induced ethidium bromide fluorescence in THP-1 cells
Type: cell-based
Details: bbATP agonist, 37° C. for one hour, negative logarithm of concentration reducing bbATP agonist activity by 50%
Text: Certain compounds such as benzoylbenzoyl adenosine triphosphate (bbATP) are known to be agonists of the P2X7 receptor, effecting the formation of pores in the plasma membrane (Drug Development Research (1996), 37(3), p.126). Consequently, when the receptor is activated using bbATP in the presence of ethidium bromide (a fluorescent DNA probe), an increase in the fluorescence of intracellular DNA-bound ethidium bromide is observed. The increase in fluorescence can be used as a measure of P2X7 receptor activation and therefore to quantify the effect of a compound on the P2X7 receptor.
In this manner, each of the title compounds of the Examples was tested for antagonist activity at the P2X7 receptor. Thus, the test was performed in 96-well flat bottomed microtitre plates, the wells being filled with 250 μl of test solution comprising 200 μl of a suspension of THP-1 cells (2.5×10^6 cells/ml) containing 10^−4M ethidium bromide, 25 μl of a high potassium buffer solution containing 10^−5M bbATP, and 25 μl of the high potassium buffer solution containing 3×10^−5M test compound. The plate was covered with aplastics sheet and incubated at 37° C. for one hour. The plate was then read in a Perkin-Elmer fluorescent plate reader, excitation 520 nm, emission 595 nm, slit widths: Ex 15 nm, Em 20 nm. For the purposes of comparison, bbATP (a P2X7 receptor agonist) and pyridoxal 5-phosphate (a P2X7 receptor antagonist) were used separately in the test as controls. From the readings obtained, a pIC50 figure was calculated for each test compound, this figure being the negative logarithm of the concentration of test compound necessary to reduce the bbATP agonist activity by 50%.

| IC50 [nM] | SMILES |
| --- | --- |
| 17.8 | Cc1ccc2nc(CCNCCCO)ccc2c1NC(=O)CC12CC3CC(CC(C3)C1)C2 [Example 205, 2-(1-Adamantyl)-N-(2-{2-[(3-hydroxypropyl)amino]ethyl}-6-methylquinolin-5-yl)acetamide Dihydrochloride] |
| 35.5 | CNCCCN(C)c1ccc2c(C(=O)NCC34CC5CC(CC(C5)C3)C4)c(Cl)ccc2n1 [Example 208, N-(1-Adamantylmethyl)-6-chloro-2-{methyl[3-(methylamino)propyl]amino}quinoline-5-carboxamide] |
